Several values for one entry are separate records, joined by “and”; a condition that tells them apart may be missing. Identical values can stand only once. Like-named read-outs stand apart in the source and are kept apart here.
Experiments:
[1] = Pharmacokinetic study, oral gavage in fasted male Sprague-Dawley rats; assay type: in vivo, rat; details: for Tmax: read-out: tmax
Method: ICI-1259 and ICI-1260 were supplied as powders and stored frozen until used. Dosing solutions in phosphate buffered saline were prepared at 1 mg/ml. These solutions were then evaluated in fasted male Sprague-Dawley rats. The rats were fitted with a jugular vein cannula for blood sampling. Rats were also fitted with an additional jugular vein cannula, or intradudodenal cannula as needed. Rats were given a commercial rodent diet ad libitum prior to study initiation. Food was then withheld from the animals for a minimum of twelve hours prior to dosing, until four hours postdose when food was returned. Water was supplied ad libitum. Three rats were used in each study, unless otherwise indicated.
For both ICI-1259 and ICI-1260, rats were given a 10 mg/kg dose from a 1 mg/ml solution. The appropriate volume of solution was given as a single bolus dose at time zero on the day of dosing. Blood samples were taken at predose, 5 minutes after dosing, 10 minutes after dosing, 15 minutes after dosing, 30 minutes after dosing, 1 hour after dosing, 2 hours after dosing, 4 hours after dosing, 6 hours after dosing, and 8 hours after dosing.

[2] = system: bovine type 2 collagen immunized female Lewis rats; assay: Collagen-induced arthritis assay, oral gavage treatment, ankle diameter; assay type: in vivo, rat; details: oral 25 mg/kg; study days 5-7
Method: (§1) Female Lewis rats (CR) weighing between 125-200 g were immunized with bovine type 2 collagen, 2 mg/ml in a 1:1 solution of 0.01 N acetic acid and Freund's incomplete adjuvant (“FIA”). A 0.1 ml portion of the collagen solution was injected id (intradermally) at three sites on the rat. Rats were immunized with the collagen solution on days 1 and 6 of the study. […] On day 9 (study day “0”), baseline ankle diameters were measured. On days 10-15 (study days 1-6), the rats were then treated, via oral gavage, with either 1, 5, or 25 mg/kg of one of ICI-1259 or ICI-1260, prepared as described below. Ankle diameter measurements were measured on each of days 10-16.
Separate solutions of ICI-1259 and ICI-1260 were prepared in Dulbecco's PBS (pH 7) (“vehicle”) at 1 mg/ml. Control animals, who had not been immunized, were given vehicle without any compound. In a further control, immunized rats were given vehicle without ICI-1259 or ICI-1260. In still another control, immunized rats were treated with Enbrel™ at 10 mg/kg.

[3] = system: bovine type 2 collagen immunized rats; assay: Collagen-induced arthritis assay, IP injection protocol, ankle diameter; assay type: in vivo, rat
Method: as §1
Compounds ICI-1259, ICI-1260, ICI-1505, and ICI-1506 were administered via IP injection to treat collagent-induced arthritis in a variation of the experiments described above. Under the protocol of the IP injection experiments, animal were immunized with Bovine Type 2 collagen as previously described. […] On day 9 (study day “0”), baseline ankle diameters were measured. On days 10-12 (study days 1-3), the rats were then treated once per day, via IP injection, with one of ICI-1259, ICI-1260, ICI-1505, or ICI-1506 at 10 mg/kg. Ankle diameter in the immunized rodents was measured on each of days 10-13 as well as on day 14. […] See FIG. 18 (ICI-1259, ICI-1260, and ICI-1505) and FIG. 19 (ICI-1506).
In a separate study, using the IP injection protocol described above, ICI-1259 and 1260 were each dosed at 2 mg/kg and 0.4 mg/kg.

5-HT1B = assay: 5-HT receptor binding, displacement of tritiated ligands; details: at 10 μM
Method: (§2) 5-HT receptor binding was measured using membrane preparations of brain regions known to be enriched with given 5-HT receptor subtype(s). The assay subsequently measured the displacement of tritiated ligands known to bind to a given 5-HT subtype.
(§3) A receptor binding assay was performed for ICI-1259 and ICI-1260 showing that at 10 μM, these compounds bind receptors 5-HT1A(h), 5-HT1B, 5-HT1D(h), 5-HT2A, 5-HT2A(h), 5-HT2B, 5-HT2C, 5-HT3,5-HT3(h), 5-HT4, 5-HT5A(h), 5-HT6, and 5-HT7.

5-HT2A(h) = target: T1, 5-HT2A(h) (Homo sapiens, UniProt P28223); assay: as above; details: at 10 μM
T1 construct: from tissue
T1 sequence (P28223 whole entry): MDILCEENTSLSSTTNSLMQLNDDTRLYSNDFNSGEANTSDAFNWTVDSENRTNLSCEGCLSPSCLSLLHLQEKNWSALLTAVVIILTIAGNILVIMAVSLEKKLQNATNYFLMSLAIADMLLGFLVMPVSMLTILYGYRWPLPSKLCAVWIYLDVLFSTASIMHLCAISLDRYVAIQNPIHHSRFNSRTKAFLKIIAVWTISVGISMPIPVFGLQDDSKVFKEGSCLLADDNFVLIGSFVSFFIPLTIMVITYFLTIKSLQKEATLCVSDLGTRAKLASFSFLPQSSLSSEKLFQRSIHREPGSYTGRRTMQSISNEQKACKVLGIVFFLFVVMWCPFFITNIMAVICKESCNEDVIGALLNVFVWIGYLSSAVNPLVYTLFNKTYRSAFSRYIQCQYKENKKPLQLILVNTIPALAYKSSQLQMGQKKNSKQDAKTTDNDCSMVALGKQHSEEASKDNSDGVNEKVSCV
Method: as §2, §3

5-HT3(h) = target: T2, 5-HT3(h) (Homo sapiens, UniProt P46098); assay: as above; details: at 10 μM
T2 construct: from tissue
T2 sequence (P46098 24-478): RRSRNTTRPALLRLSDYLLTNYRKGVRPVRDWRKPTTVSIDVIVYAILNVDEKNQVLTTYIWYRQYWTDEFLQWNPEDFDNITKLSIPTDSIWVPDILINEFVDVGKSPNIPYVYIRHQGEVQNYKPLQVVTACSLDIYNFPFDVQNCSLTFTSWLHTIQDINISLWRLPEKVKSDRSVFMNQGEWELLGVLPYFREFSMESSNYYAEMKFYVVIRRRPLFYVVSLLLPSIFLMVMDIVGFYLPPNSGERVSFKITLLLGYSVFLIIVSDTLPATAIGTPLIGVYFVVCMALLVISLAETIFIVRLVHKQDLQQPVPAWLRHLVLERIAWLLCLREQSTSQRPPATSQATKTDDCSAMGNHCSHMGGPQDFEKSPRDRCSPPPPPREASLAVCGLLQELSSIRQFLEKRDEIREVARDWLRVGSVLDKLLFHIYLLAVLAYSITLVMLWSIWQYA
Method: as §2, §3

5-HT3 = assay: as above; details: at 10 μM
Method: as §2, §3

5-HT6 = assay: as above; details: at 10 μM
Method: as §2, §3

[4] = individual rats, oral gavage 10 mg/kg, 10 mg/kg
[5] = male, Sprague-Dawley, rat, plasma, po, 10 mg/kg, individual rats, oral gavage 10 mg/kg
[6] = male, Sprague-Dawley, rat, plasma, po, 10 mg/kg, mean, oral gavage 10 mg/kg

CNCC(=O)NCCCN1CCC(CCCN2c3ccccc3Sc3ccc(C(F)(F)F)cc32)CC1 [ICI-1259, 2-(methylamino)-N-(3-(4-(3-(2-(trifluoromethyl)-10H-phenothiazin-10-yl)propyl)piperidin-1-yl)propyl)acetamide]
dose absorbed after oral dosing ([1]; indirectly indicated by the average bioavailability, oral 10 mg/kg): approximately 38%
AUClast [1, 4]: 98.7 ng·h/mL and 74.2 ng·h/mL
Cmax [1, 4]: 28.4 ng/mL and 24.3 ng/mL
Dose Normalized AUClast [1, 4]: 6.52 kg·ng·h/mL/mg and 9.87 kg·ng·h/mL/mg and 7.42 kg·ng·h/mL/mg
Plasma concentration ([1]; individual rats, oral gavage 10 mg/kg, 0.083 hr, BLOQ = below limit of quantitation (1 ng/mL)): BLOQ
Plasma concentration ([1]; individual rats, oral gavage 10 mg/kg, 0.25 hr, 10 mg/kg): 1.10 ng/mL and 3.38 ng/mL and 4.62 ng/mL
Plasma concentration ([1]; individual rats, oral gavage 10 mg/kg, 0.50 hr, 10 mg/kg): 1.56 ng/mL and 3.45 ng/mL and 5.39 ng/mL
Plasma concentration ([1]; individual rats, oral gavage 10 mg/kg, 1.0 hr, 10 mg/kg): 5.21 ng/mL and 17.6 ng/mL and 4.81 ng/mL
Plasma concentration ([1]; individual rats, oral gavage 10 mg/kg, 2.0 hr, 10 mg/kg): 28.4 ng/mL and 24.3 ng/mL
Plasma concentration ([1]; individual rats, oral gavage 10 mg/kg, 4.0 hr, 10 mg/kg): 7.49 ng/mL and 7.34 ng/mL
Plasma concentration ([1]; individual rats, oral gavage 10 mg/kg, 6.0 hr, 10 mg/kg): 10.8 ng/mL and 6.73 ng/mL
Plasma concentration ([1]; individual rats, oral gavage 10 mg/kg, 8.0 hr, 10 mg/kg): 4.35 ng/mL and 3.04 ng/mL
bioavailability ([1]; individual rats, oral gavage 10 mg/kg, dose normalized AUC divided by average intravenous AUC, 10 mg/kg): 17% and 13%
AUC(0-t) [1, 5]: 65.2 ng·h/mL
concentration at 2 hr ([1]; male, Sprague-Dawley, rat, plasma, po, 10 mg/kg, individual rats, oral gavage 10 mg/kg, 2.0 hr): 16.6 ng/mL
concentration at 4 hr ([1]; male, Sprague-Dawley, rat, plasma, po, 10 mg/kg, individual rats, oral gavage 10 mg/kg, 4.0 hr): 8.31 ng/mL
concentration at 6 hr ([1]; male, Sprague-Dawley, rat, plasma, po, 10 mg/kg, individual rats, oral gavage 10 mg/kg, 6.0 hr): 7.85 ng/mL
concentration at 8 hr ([1]; male, Sprague-Dawley, rat, plasma, po, 10 mg/kg, individual rats, oral gavage 10 mg/kg, 8.0 hr): 3.28 ng/mL
bioavailability ([1]; male, Sprague-Dawley, rat, plasma, po, 10 mg/kg, individual rats, oral gavage 10 mg/kg, dose normalized AUC divided by average intravenous AUC, read-out: Bioavailability): 11%
Cmax ([1]; male, Sprague-Dawley, rat, plasma, po, 10 mg/kg, individual rats, oral gavage 10 mg/kg, read-out: Cmax): 16.6 ng/mL
Tmax [1, 5]: 2 h
bioavailability ([1]; male, Sprague-Dawley, rat, plasma, po, 10 mg/kg, mean (average), oral gavage 10 mg/kg, read-out: Bioavailability): 14%
AUC(0-t) [1, 6]: 79.4 ng·h/mL
concentration at 0.25 hr ([1]; male, Sprague-Dawley, rat, plasma, po, 10 mg/kg, mean, oral gavage 10 mg/kg, 0.25 hr): 3.03 ng/mL
concentration at 0.5 hr ([1]; male, Sprague-Dawley, rat, plasma, po, 10 mg/kg, mean, oral gavage 10 mg/kg, 0.50 hr): 3.47 ng/mL
concentration at 1 hr ([1]; male, Sprague-Dawley, rat, plasma, po, 10 mg/kg, mean, oral gavage 10 mg/kg, 1.0 hr): 9.21 ng/mL
concentration at 2 hr ([1]; male, Sprague-Dawley, rat, plasma, po, 10 mg/kg, mean, oral gavage 10 mg/kg, 2.0 hr): 23.1 ng/mL
concentration at 4 hr ([1]; male, Sprague-Dawley, rat, plasma, po, 10 mg/kg, mean, oral gavage 10 mg/kg, 4.0 hr): 7.71 ng/mL
concentration at 6 hr ([1]; male, Sprague-Dawley, rat, plasma, po, 10 mg/kg, mean, oral gavage 10 mg/kg, 6.0 hr): 8.46 ng/mL
concentration at 8 hr ([1]; male, Sprague-Dawley, rat, plasma, po, 10 mg/kg, mean, oral gavage 10 mg/kg, 8.0 hr): 3.56 ng/mL
Cmax ([1]; male, Sprague-Dawley, rat, plasma, po, 10 mg/kg, mean, oral gavage 10 mg/kg, read-out: Cmax): 23.1 ng/mL
Tmax [1, 6]: 2 h
Dose Normalized AUClast ([1]; mean, oral gavage 10 mg/kg): 7.94 kg·ng·h/mL/mg
reduction in ankle swelling [2]: statistically significant reduction in ankle swelling
reduction in ankle swelling (ankle diameter) ([3]; IP injection 0.4 mg/kg): Statistically significant results were only observed for ICI-1260 at 2 mg/kg
reduction in ankle swelling (ankle diameter) ([3]; IP injection 2 mg/kg, study days 3 and 4): Statistically significant results were only observed for ICI-1260 at 2 mg/kg
reduction in ankle swelling (ankle diameter) ([3]; IP injection 10 mg/kg once per day, study days 1-3, observed on study days 2-4): statistically significant results were observed
receptor binding (5-HT1B): bind
receptor binding (5-HT2A(h)): bind
receptor binding (5-HT3(h)): bind
receptor binding (5-HT3): bind
receptor binding (5-HT6): bind

Source: US20090275557A1, “Novel Composition for Treatment of Diseases Related to Activated Lymphocytes” (Immune Control, Inc., priority 2008, published 2009)
